Tests used:
[1] = test system: SW480, MelJuso, HCC44, SH2 and COLO704 cell lines; format: cell-based; conditions: 24 h, 0.01-100 μM
Experimental: In the following experiment the possible therapeutic window for NO-ASA derivatives was investigated. […] The melanoma cell line MelJuso, the colon carcinoma cell line SW480, the small cell lung cancer cell line HCC44, the ovarian adenocarcinoma cell line COLO704 and the acute myeloid leukemia cell line SH2 were treated with concentrations of p-NO-ASA and B9, B12 and B13 in a range between 0.01 μM and 100 μM for 24 h, followed by addition of luminogenic CellTiter-Glo® reagent.

GRANTA-519 = assay: CellTiter-Glo ATP assay, GRANTA-519 cell line; format: cell-based; conditions: 24 h
Experimental: (§1) Several cell lines (n=5) were treated with different concentrations of p-NO-ASA, B9, B12 and B13 ranging between 0.01 μM and 1000 μM for 24 hours followed by addition of luminogenic CellTiter-Glo®-reagent. […] For each cell line the order of used compound in the bar chart is from left to right as following: p-NO-ASA, B9, B12, B13.
(§2) Treatment success in CLL may depend on cytogenetic and molecular parameters as for instance del13q or TP53 gene disruption. Therefore, the NO-ASA derivatives were examined on (chronic) B cell lymphoma cell lines with different geno- and phenotypes (JVM3, EHEB, U2932, MEC-1, GRANTA-519). The cells were treated with concentrations between 0.01 and 1000 μM for 24 h followed by the addition of luminogenic CellTiter-Glo® reagent.

[2] = test system: phosphorylated NFkappaBp65 protein; assay: Western blot of NFkappaB phosphorylation status in CLL cells; format: cell-based, human; conditions: 3 h
Experimental: CLL cells were treated with B1, B9, B12 and B13 (0.1 μM, 1 μM, 10 μM) for 3 h. Untreated and DMSO (1%) treated cells served as control. GAPDH=loading control.
The BCR signalling pathway plays an important pathogenic role in CLL and lymphomas leading often to a constitutive active NFkappaB (in this state NFkappaB is phosphorylated). Therefore the influence of the derivatives on the phosphorylation status of NFkappaB was analyzed by Western Blot. CLL cells were treated with 0.1 μM, 1 μM or 10 μM of each derivate, respectively, for 3 h. CLL cells were treated with B1, B9, B12 and B13 (0.1 μM, 1 μM, 10 μM) for 3 h. Untreated and DMSO (1%) treated cells served as control. GAPDH=loading control.

Primary CLL cells = assay: AnnexinV/PI assay on primary CLL cells; format: cell-based, human
Experimental: (§3) PBMCs or CLL cells (5*10^6 cells/ml) were incubated for 24 h with different compounds at concentrations from 0.01 to 100 μM. Cell survival was normalized to DMSO control [vehicle]. See Example 1.
(§4) Primary CLL or peripheral blood mononuclear cells of healthy donors (5*10^6/ml) were incubated for 24 h with different compounds according to the invention and NO-ASA as a control. The compounds were added in different concentrations, in particular in concentrations from 0.01-100 μM. Cell survival was assessed by AnnexinV/PI assay (Kit commercially available, e.g. by Biotium Inc, USA; or Phoenix Flow Systems, US), the results were normalized to DMSO control [vehicle] and dose response curves were calculated using a non-linear regression model.

[3] = test system: peripheral blood mononuclear cells (PBMCs) of healthy donors; assay: AnnexinV/PI assay on PBMCs of healthy donors; format: cell-based; conditions: Homo sapiens, PBMC; 24 h incubation, 0.01-100 μM, 5*10^6 cells/ml, normalized to DMSO control; read-out: AnnexinV/PI assay EC50 PBMCs
Experimental: as §3, §4

U2932 = assay: CellTiter-Glo ATP assay, U2932 cell line; format: cell-based; conditions: 24 h, 0.01-1000 μM
Experimental: as §1, §2

EHEB = assay: CellTiter-Glo ATP assay, EHEB cell line; format: cell-based; conditions: 24 h, 0.01-1000 μM
Experimental: as §1, §2

MEC-1 = assay: CellTiter-Glo ATP assay, MEC-1 cell line; format: cell-based; conditions: 24 h
Experimental: as §1, §2

caspases 3 and 7 = assay: caspase-3/7 assay in CLL cells; format: cell-based; conditions: Homo sapiens, CLL cell, 6 h, 0.01-20 μM, luminogenic caspase-3/7-substrate, read-out: activation of caspases 3 and 7, EC50
From the text: FIG. 8 depicts the involvement of caspase-mediated apoptosis in CLL cells upon treatment with p-NO-ASA, B9, B12 and B13. Representative blots of 3 independent experiments are shown. Untreated and DMSO (1%) treated cells served as control. beta-actin=loading control (FIG. 8A). para-NO-ASA and B9 induced a concentration-dependent increase in caspase-3/7-activation (FIG. 8B).
To determine whether the toxicity on CLL cells is due to caspase-mediated apoptosis, the cleavage of PARP (Poly(ADP-ribose)-Polymerase 1) and XIAP (X-linked inhibitor of apoptosis) was analyzed by immunoblot. CLL cells were cultured alone, with 1% DMSO or with EC50 of p-NO-ASA, meta-NO-ASA, B9, B12 and B13 for 24 h followed by protein lysation and western blot analysis using antibodies to detect prognostic apoptotic proteins (XIAP, PARP). […] All compounds tested induced PARP and XIAP cleavage (FIG. 8A). Further a caspase-3/7 assay was carried out. CLL cells were incubated with para-NO-ASA and B9 in different concentrations ranging from 0.01 μM to 20 μM for 6 h followed by addition of luminogenic caspase-3/7-substrate. This indicates the reduction of the survival of CLL cells upon treatment with p-NO-ASA and B9 due to the induction of caspase-mediated apoptosis.

JVM-3 = assay: CellTiter-Glo ATP assay, JVM-3 cell line; format: cell-based, human; conditions: 24 h, 0.01-1000 μM
Experimental: as §1, §2

[4] = 0.01-1000 μM, compared to B9, B12, B13

CC(=O)Oc1ccccc1C(=O)Oc1ccc(CO[N+](=O)[O-])cc1 [B1, 4-(nitrooxy)methyl phenyl-2-acetoxy benzoate, reference compound]
ATP content in SW480, MelJuso, HCC44, SH2 and COLO704 cell lines [1]: reduced ATP content
effectiveness in GRANTA-519 (ATP content) (GRANTA-519; [4]): significantly less effective
EC50 (GRANTA-519; Homo sapiens, Granta-519, CellTiter-Glo): 22.2 µM
reduction of NFkappaB activity (phosphorylated NFkappaBp65) ([2]; CLL cells, 0.1, 1, 10 μM): concentration dependent reduction
concentration inducing the reduction of NFkappaB p65 protein ([2]; CLL cells): twofold concentration
selectivity for CLL cells compared to PBMCs (Primary CLL cells; FIG. 3, sensitivity of CLL cells vs PBMCs, 24 h): selective for CLL cells
EC50 (Primary CLL cells; Homo sapiens, CLL cell, 24 h incubation, 0.01-100 μM, 5*10^6 cells/ml, normalized to DMSO control, read-out: AnnexinV/PI assay EC50 Primary CLL): 6.7 µM
EC50 [3]: 47.2 µM
ATP content in U2932 (U2932): reduced ATP content
ATP content in EHEB (EHEB): reduced ATP content
effectiveness in MEC-1 (ATP content) (MEC-1; [4]): significantly less effective
EC50 (MEC-1; Homo sapiens, MEC1, CellTiter-Glo): 53.4 µM
EC50 (caspases 3 and 7): 1.84 µM
ATP content in JVM-3 (JVM-3): reduced ATP content
